The values below come from patent US11413337B2, “Peptide conjugated particles for the treatment of inflammation” (Northwestern University, priority 2012, dated 2022).

One series deals with cervical spinal cord. In words: spinal cord histology and in vivo imaging in R-EAE. Further details: species or system mouse. The conditions noted are these: spinal cord, day 40. As to the method: An additional therapeutic tolerance strategy was performed by delivering PLP139-151-PLG or OVA323-339 PLG to mice. […] Mice were treated with PLP-PLG or OVA323-339-PLG and the tissue was retrieved at day 40. The cervical spinal cord was isolated and sectioned to investigate the immune response within the CNS, which underlies the pathology of R-EAE and multiple sclerosis.
The clinical scores and percent incidence of EAE were determined (FIG. 10B) and the spinal cords observed via in vivo imaging (FIGS. 10A and 11). […] The bar graphs give the numerical numbers to the signal strength shown in the brain and SC scans.

Series [1] concerns Relapsing Experimental Autoimmune Encephalitis (R-EAE). In words: prophylactic tolerance in PLP139-151/CFA-induced R-EAE, particles given day −7. Type of series: in vivo, mouse. The conditions noted are these: treated day −7 relative to immunization.
In another series the test system is Th1 and Th17 responses. In words: induction of antigen-specific Th1 and Th17 responses, draining lymph node cells. Type of series: in vivo, mouse. The conditions noted are these: BALB/c mice, iv Day −7, measured Day 10. As to the method: To determine whether administration of antigen-coupled particles inhibit induction of T-helper cells, either MOG35-55-PLG or OVA323-339-PLG particles were administered intravenously to BALB/c mice at Day −7. On Day 0, OVA323-339-PLG particles and Complete Freund's Adjuvant (CFA) were administered subcutaneously to the mice. The animals were re-stimulated with either MOG35-55-PLG or OVA323-339-PLG particles on Day 10 and the draining lymph node cells were isolated. The CPM and levels of IL-17, GM-CSF, IFN-γ, IL-10, and IL-4 were measured at Day 10.

Series [2] deals with spleen, liver and lung; macrophages. In words: detection and cellular localisation of particles after iv administration. The conditions noted are these: 24 hours after intravenous infusion.
Description: Naïve uninjected mouse (top row) as compared to i.v. fluorescent PLGA/PEMA microparticle injected mouse spleen (left column), liver (middle column) and lung (left column) sections at 3-hours post injection (middle row) and 24-hours (bottom row) post-injection, counterstained with DAPI.

Where no end group is shown, it is not given here.

With “OVA323-339-PLG: control peptide OVA323-339 coupled to PLG particles (KISQAVHAAHAEINEAG; also: coupled to PLG particles; UniProt P01012 323-339, looked up, fragment)”, in the series with cervical spinal cord, the “staining for CD45, CD4, and CD11b” value is “positive staining”. In addition, the “prevention of disease induction” value in series [1] is reported as “did not prevent disease induction”. Moreover, the “Th1 and Th17 responses” value with Th1 and Th17 responses was “inhibited the Th1 and Th17 responses”.

Regarding “TAMRA-labeled PLP139-151-coupled particles: particles coupled with TAMRA-labeled PLP139-151 (CHCLGKWLGHPDK; cysteine pairing not given here; also: TAMRA label, position not given here, coupled to particles; UniProt P60202 139-151, looked up, fragment)”, the “cells taking up particles” value in series [2] is “marginal zone macrophages predominantly uptake”.
